System: SW837
Experiment: SW837 (CRC) xenograft model
Type: in vivo, mouse
Protocol: For xenograft models of H1373, HCC44, MiaPaca-2, SW1463, SW837, KYSE-410 and UM-UC-3, typically 5-10×10^6 cells in a 1:1 matrigel mix (0.2 mL total volume) are implanted by subcutaneous injection in hind leg of nude mice. […] Treatment is initiated with oral administration (gavage) of testing compound or vehicle (20% captisol, 25 mM phosphate, pH2.0) in 0.2 mL volume when tumor size reaches approximately 200-300 mg. Tumor growth and body weight are monitored over time to evaluate efficacy and signs of toxicity. For EL3187 PDX model, frozen vials containing tumor fragments are thawed at 37° C. in a water bath. The tumor fragments are transferred to 50 mL Falcon tube and the ice cold DMEM medium is slowly added into the tube to a total volume of 35 mL. Then the tumor fragments are centrifuged at 130×g for 2 minutes at 4° C. and supernatant is aspirated. This washing step is repeated twice and the tumor fragments are resuspended in 10 mL DMEM for implantation into athymic nude-Foxn1nu mice (Envigo RMS, Inc., Mount Comfort, Indiana). Once tumor volumes reach 800 to 1000 mm^3, animals are sacrificed and tumors are harvested using aseptic technique. Fresh tumors are cut into 10 to 15 mm^3 fragments and placed into cold Gibco hibernate medium. The tumor fragments are subcutaneously implanted into animals with a 10 g trochar needle. When tumor size reaches 200 to 300 mm^3, the animals are randomized for compound treatment.
Among models listed in Table 2, EL3187 is a patient-derived xenograft (PDX) model, and all other are tumor xenograft models.

C=CC(=O)N1CCN2C(=O)c3cc(F)c(-c4ccc(F)c5sc(N)c(C#N)c45)c(Cl)c3OCC[C@H]2C1 (single isomer, unassigned) [Formula I]
tumor growth inhibition (%) or regression (− %) (5 mg/kg BID x28): 83.6%
tumor growth inhibition (%) or regression (− %) (5 mg/kg QD x28): 18.2%
tumor growth inhibition (%) or regression (− %) (10 mg/kg BID x28): 62.1%
tumor growth inhibition (%) or regression (− %) (10 mg/kg QD x28): 95.2%
tumor growth inhibition (%) or regression (− %) (30 mg/kg BID x28): −23.8%
tumor growth inhibition (%) or regression (− %) (30 mg/kg QD x28): 83.5%

Reference: US20240108618A1, “KRAS G12C INHIBITOR DOSING REGIMENS” (Eli Lilly and Company, priority 2022, published 2024)
